This is an account of results in ChEMBL document CHEMBL1201862, “PubChem BioAssay data set” (2004).

Structures are written as SMILES. Active and inactive are the calls of the source. A value given as a limit tells only on which side of the number the result lay.

The IC50 is the concentration needed to halve the response being measured. Broadly, the EC50 is the concentration giving half of the maximal effect. The CC50 is the concentration at which the toxic effect on the cells reaches its halfway point. For orientation: AC50 means the midpoint of the concentration-response curve, whichever way the signal moves. By Ki is commonly meant a dissociation constant, usually derived from enzyme kinetics or from competition with a known ligand.

In assay [1] the target is T1, High affinity choline transporter 1 (Homo sapiens, UniProt Q9GZV3).
T1 sequence (Q9GZV3 whole entry): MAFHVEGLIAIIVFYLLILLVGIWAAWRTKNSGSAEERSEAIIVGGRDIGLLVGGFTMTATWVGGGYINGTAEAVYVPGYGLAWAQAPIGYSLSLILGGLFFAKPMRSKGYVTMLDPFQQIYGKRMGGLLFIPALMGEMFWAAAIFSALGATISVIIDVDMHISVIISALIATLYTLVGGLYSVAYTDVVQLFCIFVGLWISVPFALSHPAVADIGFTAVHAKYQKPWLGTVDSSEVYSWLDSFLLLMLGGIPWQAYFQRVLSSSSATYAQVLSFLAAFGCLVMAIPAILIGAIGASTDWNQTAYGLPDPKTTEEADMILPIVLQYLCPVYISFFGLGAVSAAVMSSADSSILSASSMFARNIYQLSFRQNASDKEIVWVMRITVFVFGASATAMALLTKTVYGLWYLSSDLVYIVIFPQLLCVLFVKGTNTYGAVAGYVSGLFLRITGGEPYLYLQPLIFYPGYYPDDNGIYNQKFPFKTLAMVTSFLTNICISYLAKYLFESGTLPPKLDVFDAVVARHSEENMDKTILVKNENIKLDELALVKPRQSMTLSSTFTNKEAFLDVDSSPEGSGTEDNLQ
The assay can be described thus: human choline transporter blockers, potency – cell-based, 10-point CRC, membrane potential dye, dose response (AID 588401).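 Note: membrane potential dye fluorescence of choline-evoked depolarization via CHT.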 The assay is classed as functional.

Assay [2] deals with T1, High affinity choline transporter 1. Put plainly: human choline transporter blockers, potency – cell-based, 5-point CRC, membrane potential dye, dose response (AID 504840). In kind it is functional.
Assay [3] addresses Delta-type opioid receptor (Homo sapiens, UniProt P41143). The assay can be described thus: Counterscreen for agonists of heterodimerization of the mu 1 (OPRM1) and delta 1 (OPRD1) opioid receptors: Luminescence-based cell-based high throughput dose response assay to identify agonists of OPRD1 homodimerization. [Related pubchem assays (depositor defined):AID504326, AID504355, AID504692, AID504904, AID504905]. The assay is classed as functional. (A counterscreen serves to expose hits that act by an unwanted route or on another target.)

In assay [4] the target is 5-hydroxytryptamine receptor 5A (Homo sapiens, UniProt P47898). Put plainly: Counterscreen for agonists of OPRM1-OPRD1 heterodimerization: luminescence-based cell-based high throughput dose response assay to identify agonists of 5-hydroxytryptamine (serotonin) 5A receptor (HTR5A). [Related pubchem assays (depositor defined):AID504326, AID504355, AID504692, AID504904, AID504905]. In kind it is functional.

The next assay deals with Mu-type opioid receptor (Homo sapiens, UniProt P35372). The assay can be described thus: Counterscreen for agonists of heterodimerization of the mu 1 (OPRM1) and delta 1 (OPRD1) opioid receptors: Luminescence-based cell-based high throughput dose response assay to identify agonists of OPRM1 homodimerization. The assay is classed as functional.
The target in assay [5] is T2, Short transient receptor potential channel 4 (Mus musculus, UniProt Q9QUQ5).
T2 sequence (Q9QUQ5 whole entry): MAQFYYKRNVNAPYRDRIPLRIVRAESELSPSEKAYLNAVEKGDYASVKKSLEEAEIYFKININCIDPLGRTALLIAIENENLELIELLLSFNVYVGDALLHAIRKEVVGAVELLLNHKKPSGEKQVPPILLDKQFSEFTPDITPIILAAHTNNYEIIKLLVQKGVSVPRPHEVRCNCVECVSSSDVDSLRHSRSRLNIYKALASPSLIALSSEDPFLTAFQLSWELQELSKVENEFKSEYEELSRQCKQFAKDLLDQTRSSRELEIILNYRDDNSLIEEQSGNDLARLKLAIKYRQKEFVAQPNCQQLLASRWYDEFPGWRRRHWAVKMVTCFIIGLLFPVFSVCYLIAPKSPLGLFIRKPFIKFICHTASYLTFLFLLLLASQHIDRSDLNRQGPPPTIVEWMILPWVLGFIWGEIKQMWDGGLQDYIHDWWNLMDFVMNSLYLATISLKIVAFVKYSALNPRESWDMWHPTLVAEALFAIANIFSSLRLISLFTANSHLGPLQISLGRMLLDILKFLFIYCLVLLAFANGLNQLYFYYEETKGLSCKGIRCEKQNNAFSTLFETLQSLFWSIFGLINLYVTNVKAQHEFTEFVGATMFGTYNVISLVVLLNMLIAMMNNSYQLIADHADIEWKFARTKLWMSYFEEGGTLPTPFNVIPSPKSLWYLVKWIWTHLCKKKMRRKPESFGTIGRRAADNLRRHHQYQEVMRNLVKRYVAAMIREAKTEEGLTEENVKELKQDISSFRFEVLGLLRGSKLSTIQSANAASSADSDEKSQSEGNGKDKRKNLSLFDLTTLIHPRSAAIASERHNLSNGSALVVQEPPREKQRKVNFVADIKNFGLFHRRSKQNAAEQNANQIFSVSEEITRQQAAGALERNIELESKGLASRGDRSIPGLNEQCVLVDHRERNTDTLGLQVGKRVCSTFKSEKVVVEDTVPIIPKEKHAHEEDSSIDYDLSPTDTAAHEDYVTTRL
Put plainly: calcium entry via TRPC4 opening agents – cell-based, HEK293 TRPC4/mu-opioid, Fluo-4 calcium, dose response (AID 434937). In kind it is functional.

A further assay relates to Vero. The assay can be described thus: viability of Vero cells under compound – cytotoxicity control for flavivirus capping enzyme inhibitors (AID 588742). The assay is classed as functional. The following applies: Chlorocebus sabaeus.
Assay [6] concerns the target T3, Endoribonuclease toxin MazF (Escherichia coli K-12, UniProt P0AE70).
T3 sequence (P0AE70 whole entry): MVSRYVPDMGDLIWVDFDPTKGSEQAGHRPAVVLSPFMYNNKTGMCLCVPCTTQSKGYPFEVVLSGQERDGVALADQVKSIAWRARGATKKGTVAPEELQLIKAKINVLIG
The assay can be described thus: activation of MazEF endoribonuclease cleavage – biochemical, fluorescence, single-stranded RNA substrate, uHTS hits, dose response (AID 588481). In kind it is functional.

Assay [7] concerns the target T3, Endoribonuclease toxin MazF. The assay can be described thus: substrate-only fluorescence increase artefacts – biochemical, single-stranded RNase substrate, counter-screen for MazEF activator project, dose response (AID 588502). In kind it is functional.
Assay [8] relates to Escherichia coli. The assay can be described thus: microbe, parasite or virus in culture.
For assay [9], the system named is Escherichia coli. The assay can be described thus: microbe, parasite or virus in culture. This is another data set of the same source.
The target of another assay is Paired box protein Pax-8 (Homo sapiens, UniProt Q06710). Put plainly: PAX8 transcriptional activity inhibition in RMG-I – RMG-I cells, luciferase, cherry-pick, dose response (AID 687027).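 Note: luciferase reporter driven by Pax8 target thyroperoxidase promoter measured by SteadyGlo luminescence.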 The assay is classed as functional, cell-based.
The next assay relates to HEK293. The assay can be described thus: HEK293T cell viability loss, resazurin readout – resazurin fluorescence, cytotoxicity control for NF-kB activator project, SAR follow-up (AID 493251). The assay is classed as functional, cell-based. The following applies: Homo sapiens. On the technique in general: The colour change of resazurin is a common sign of viable cells or microbes.

The target of assay [10] is Cyclin-dependent kinase 19 (Homo sapiens, UniProt Q9BWU1). The assay can be described thus: Navigating the Kinome. Panel member name: CDC2L6. The assay is classed as functional.
Assay [11] addresses ALK tyrosine kinase receptor (Homo sapiens, UniProt Q9UM73). The assay is classed as functional.

Sequence of Delta-type opioid receptor (P41143 whole entry): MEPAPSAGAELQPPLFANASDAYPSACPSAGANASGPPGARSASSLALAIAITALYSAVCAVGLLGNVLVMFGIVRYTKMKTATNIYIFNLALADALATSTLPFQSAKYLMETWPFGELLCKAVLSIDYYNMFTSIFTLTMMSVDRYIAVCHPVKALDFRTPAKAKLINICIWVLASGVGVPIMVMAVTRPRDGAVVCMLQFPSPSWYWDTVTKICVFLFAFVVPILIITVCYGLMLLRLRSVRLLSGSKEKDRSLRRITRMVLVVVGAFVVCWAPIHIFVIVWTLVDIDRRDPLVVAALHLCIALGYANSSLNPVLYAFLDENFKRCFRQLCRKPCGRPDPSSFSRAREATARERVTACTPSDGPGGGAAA
Sequence of Mu-type opioid receptor (P35372 whole entry): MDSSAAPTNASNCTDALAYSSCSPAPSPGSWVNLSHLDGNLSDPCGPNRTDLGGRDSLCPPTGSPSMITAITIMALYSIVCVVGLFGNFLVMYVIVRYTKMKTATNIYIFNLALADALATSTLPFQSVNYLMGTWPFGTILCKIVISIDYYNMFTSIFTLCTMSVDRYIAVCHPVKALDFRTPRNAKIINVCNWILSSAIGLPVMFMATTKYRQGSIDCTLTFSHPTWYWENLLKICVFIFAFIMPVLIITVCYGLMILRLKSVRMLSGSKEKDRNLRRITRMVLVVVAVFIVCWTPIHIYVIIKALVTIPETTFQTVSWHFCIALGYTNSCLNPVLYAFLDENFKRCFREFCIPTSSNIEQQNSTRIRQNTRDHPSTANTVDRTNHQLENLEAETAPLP
Sequence of 5-hydroxytryptamine receptor 5A (P47898 whole entry): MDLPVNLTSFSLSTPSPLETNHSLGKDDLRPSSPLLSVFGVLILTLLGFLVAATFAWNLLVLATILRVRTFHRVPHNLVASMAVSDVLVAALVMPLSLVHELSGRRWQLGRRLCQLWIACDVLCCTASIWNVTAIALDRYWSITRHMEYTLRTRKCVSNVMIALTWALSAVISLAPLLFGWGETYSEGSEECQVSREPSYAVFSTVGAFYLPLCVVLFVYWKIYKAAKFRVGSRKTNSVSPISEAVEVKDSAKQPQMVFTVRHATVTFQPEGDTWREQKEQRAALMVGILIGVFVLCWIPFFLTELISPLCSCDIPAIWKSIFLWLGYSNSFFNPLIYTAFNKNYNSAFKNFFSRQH
Sequence of Paired box protein Pax-8 (Q06710 whole entry): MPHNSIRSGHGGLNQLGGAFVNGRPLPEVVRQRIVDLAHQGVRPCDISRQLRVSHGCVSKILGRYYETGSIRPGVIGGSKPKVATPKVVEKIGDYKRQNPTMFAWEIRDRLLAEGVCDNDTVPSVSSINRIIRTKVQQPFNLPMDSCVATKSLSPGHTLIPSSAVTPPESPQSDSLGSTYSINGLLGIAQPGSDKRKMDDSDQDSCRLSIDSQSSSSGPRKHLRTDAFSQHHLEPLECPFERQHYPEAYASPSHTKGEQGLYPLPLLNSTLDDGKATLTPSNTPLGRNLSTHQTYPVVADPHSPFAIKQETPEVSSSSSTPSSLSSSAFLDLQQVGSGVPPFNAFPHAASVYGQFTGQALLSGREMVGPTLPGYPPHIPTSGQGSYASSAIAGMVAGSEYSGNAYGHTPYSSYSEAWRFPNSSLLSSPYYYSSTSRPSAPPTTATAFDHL
Sequence of Cyclin-dependent kinase 19 (Q9BWU1 whole entry): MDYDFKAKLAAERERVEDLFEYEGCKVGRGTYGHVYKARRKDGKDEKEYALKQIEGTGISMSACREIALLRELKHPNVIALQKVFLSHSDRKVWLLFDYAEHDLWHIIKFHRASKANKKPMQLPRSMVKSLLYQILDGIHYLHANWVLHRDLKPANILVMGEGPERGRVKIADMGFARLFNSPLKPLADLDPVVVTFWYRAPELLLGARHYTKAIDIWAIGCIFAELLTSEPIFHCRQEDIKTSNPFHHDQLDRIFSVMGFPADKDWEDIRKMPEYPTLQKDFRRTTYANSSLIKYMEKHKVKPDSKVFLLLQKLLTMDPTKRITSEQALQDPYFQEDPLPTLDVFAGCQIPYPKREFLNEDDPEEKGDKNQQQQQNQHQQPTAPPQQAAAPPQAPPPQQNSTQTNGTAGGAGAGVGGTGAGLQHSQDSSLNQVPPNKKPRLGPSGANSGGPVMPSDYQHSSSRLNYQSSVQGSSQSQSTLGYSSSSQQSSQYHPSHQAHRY
Sequence of ALK tyrosine kinase receptor (Q9UM73 whole entry): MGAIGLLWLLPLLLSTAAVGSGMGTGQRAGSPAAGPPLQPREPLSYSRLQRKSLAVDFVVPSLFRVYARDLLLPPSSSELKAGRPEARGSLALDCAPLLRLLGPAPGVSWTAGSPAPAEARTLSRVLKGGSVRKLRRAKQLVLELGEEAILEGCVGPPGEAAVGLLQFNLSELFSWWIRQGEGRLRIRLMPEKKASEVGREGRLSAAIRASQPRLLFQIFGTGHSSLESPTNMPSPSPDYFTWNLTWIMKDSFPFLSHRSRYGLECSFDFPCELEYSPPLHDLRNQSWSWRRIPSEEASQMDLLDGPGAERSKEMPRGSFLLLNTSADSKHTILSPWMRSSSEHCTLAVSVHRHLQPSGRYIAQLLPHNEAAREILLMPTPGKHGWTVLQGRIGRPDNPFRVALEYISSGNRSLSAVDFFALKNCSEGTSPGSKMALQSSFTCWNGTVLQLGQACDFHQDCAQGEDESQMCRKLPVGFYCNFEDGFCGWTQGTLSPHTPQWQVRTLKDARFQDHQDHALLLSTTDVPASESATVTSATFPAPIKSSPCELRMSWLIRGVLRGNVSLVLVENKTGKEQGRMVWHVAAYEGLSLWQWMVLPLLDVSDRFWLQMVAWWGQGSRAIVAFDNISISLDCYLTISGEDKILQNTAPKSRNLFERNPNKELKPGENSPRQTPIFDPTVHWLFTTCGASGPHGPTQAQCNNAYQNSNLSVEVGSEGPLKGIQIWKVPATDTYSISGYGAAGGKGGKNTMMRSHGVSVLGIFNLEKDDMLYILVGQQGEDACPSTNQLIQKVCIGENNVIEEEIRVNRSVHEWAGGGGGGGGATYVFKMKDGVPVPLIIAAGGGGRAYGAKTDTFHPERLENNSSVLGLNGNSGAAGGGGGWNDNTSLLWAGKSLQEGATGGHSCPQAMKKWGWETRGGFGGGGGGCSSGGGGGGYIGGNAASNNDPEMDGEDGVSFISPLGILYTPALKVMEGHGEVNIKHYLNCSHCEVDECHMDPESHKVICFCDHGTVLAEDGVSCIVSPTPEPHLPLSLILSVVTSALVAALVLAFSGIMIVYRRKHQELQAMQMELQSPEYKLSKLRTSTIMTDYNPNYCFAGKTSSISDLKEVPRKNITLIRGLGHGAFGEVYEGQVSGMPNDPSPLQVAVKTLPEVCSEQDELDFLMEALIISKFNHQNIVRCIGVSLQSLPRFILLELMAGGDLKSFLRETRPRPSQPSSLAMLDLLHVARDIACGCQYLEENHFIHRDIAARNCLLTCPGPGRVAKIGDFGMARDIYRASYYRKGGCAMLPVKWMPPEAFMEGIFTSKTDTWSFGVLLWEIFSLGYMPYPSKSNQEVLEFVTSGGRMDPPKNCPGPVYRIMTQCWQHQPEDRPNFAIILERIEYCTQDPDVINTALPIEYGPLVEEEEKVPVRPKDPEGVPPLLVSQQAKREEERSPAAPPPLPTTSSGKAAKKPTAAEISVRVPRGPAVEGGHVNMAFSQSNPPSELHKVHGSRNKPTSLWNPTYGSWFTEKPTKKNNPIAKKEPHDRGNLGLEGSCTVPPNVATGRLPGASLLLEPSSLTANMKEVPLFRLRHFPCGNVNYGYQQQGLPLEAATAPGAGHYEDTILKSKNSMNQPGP

Take `N=C1CCCN1CC(=O)c1ccc(Br)cc1`: the IC50 is 1.06 µM (active) in [1] and 6.07 µM (active) in [2].
`COc1ccc2c(Cl)c(-c3nnc(SCC(=O)c4ccccc4)n3C)sc2c1`: the EC50 in assay [3] was 26.5 µM (inactive); in assay [4], > 92.5 µM (inactive); at Mu-type opioid receptor, 10.3 µM (inactive); in [5] it was 0.668 µM (active).
Regarding `O=C(Nc1ccc(S(=O)(=O)NCC2CCCO2)cc1)c1ccc(Cl)cc1[N+](=O)[O-]` (centres undefined), the IC50 was 4.47 µM (active) in assay [1] and 7.39 µM (active) in assay [2].
As to `Cc1ccc(-c2cc(C(=O)NCc3ccco3)c3ccccc3n2)s1`, the CC50 in the assay on Vero was > 40 µM (active).
For the compound `CCOC(=O)C1=C(C)N(CC(C)C)C(=O)/C1=C\c1cccs1`, the EC50 in assay [6] and in [7] was > 99 µM (inactive) each time.
In the case of `CN1C2C=C(N(CCc3ccccc3)C(=O)c3ccc(Cl)cc3)CC1CC2` (centres undefined), the EC50 is > 92.5 µM (inactive) in [3], > 92.5 µM (inactive) in assay [4], 67.3 µM (inactive) on Mu-type opioid receptor and 0.531 µM (active) in assay [5].
With `CC(C)n1ncc2c(C(=O)N3CCN(Cc4ccc(Br)s4)CC3)cc(C3CC3)nc21`, the AC50 in the assay with Escherichia coli [8] is 76 µM (active).
Consider `C[C@H]1c2cccc(O)c2C(=O)C2C(=O)C3(O)C(=O)C(C(N)=O)C(=O)[C@@H](N(C)C)[C@@H]3[C@@H](O)[C@@H]21` (some centres undefined), for which the AC50 in the assay on Escherichia coli [9] is 12.3 µM (active); with Escherichia coli [8], 0.882 µM (active).
For the compound `CC(C)=CCC/C(C)=C/CNC(=O)C[C@H]1C[C@H](C(=O)N2CCOCC2)[C@@]2(C)c3[nH]c4ccc(Cl)cc4c3CCN2C1=O`, the figures for the AC50 with Escherichia coli [8] and at Paired box protein Pax-8 were 112 µM (active) and 11.8 µM (active), respectively.
In the case of `CCNC(=O)CCc1nc(-c2ccc(OCC)cc2)no1`, the IC50 with HEK293 is > 80 µM (inactive).
Consider `O=C1/C(=C/c2ccc3c(c2)OCO3)SC(=S)N1CCC(=O)N(CCO)c1ccccc1`, for which the results for the EC50 in [6] and in assay [7] were > 99 µM (inactive) and 90.4 µM (inactive), respectively.
Regarding `CC1CCCC(NC(=O)c2ccc(C/N=c3\c(N4CCCC4)c(O)c3=O)cc2)C1C` (centres undefined), the IC50 was 0.501 µM (active) in [1] and 0.851 µM (active) in assay [2].
For the compound `CCOc1ccc(-c2nc3ccccn3c2-c2ccnc(Nc3cccc(CCN(C)C)c3)n2)cc1`, the Ki was 6.31 µM (active) in assay [10] and 0.316 µM (active) in assay [11].
As for `COc1ccccc1/N=C/c1c(C)c(C#N)c2nc3ccccc3n2c1O`, the EC50 in assay [6] and in assay [7] was > 99 µM (inactive) throughout.
